Drawing on patent US8063221B2, “Aminoquinolones as GSK-3 inhibitors” (Kyorin Pharmaceutical Co., Ltd., priority 2006, dated 2011), this text covers IC50 and MIC for 17 molecules.

The structures appear in SMILES notation. Converted amounts (≈) assume the structure as drawn. Read-outs that look alike come from different tables or passages of the source.

Assay [1] has as its target T1, recombinant full-length human GSK3β (Homo sapiens, UniProt P49841).
T1 construct: recombinant full-length human GSK3β (Upstate); purchased Upstate
Briefly: Luciferase-coupled cell-free GSK3β kinase assay. The format is biochemical. The method, boiled down: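 GSK3β, 10-25 ng, was incubated with compound for 1 h at 30° C in MOPS pH 7.0 buffer containing 62.5 μM phospho-glycogen synthase peptide-2 and 5 μM ATP. Remaining ATP was read by KinaseGlo luminescence, and IC50 was fitted from % inhibition relative to maximal inhibition.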

A further assay concerns E. coli, ATCC8739. Description: Antibacterial activity (MIC), E. coli. The format is cell-based. The note with it: Escherichia coli. An excerpt: (§1) As used herein, a minimum inhibitory concentration (MIC) for bacterial growth assay is the lowest level of a compound needed to cause an inhibition to bacterial growth in culture medium. In certain embodiments, the antibacterial activity of compounds herein, measured as MIC.
(§2) In certain embodiments, GSK3 inhibitors provided herein are substantially free of antibacterial activity or having very low antibacterial activity. The antibacterial activity can be measured by methods known in the art by estimating a minimum inhibitory concentration (MIC) for test compounds. A MIC is the lowest level of a compound needed to cause an inhibition to bacterial growth in a culture medium. […] (Clinical and Laboratory Standards Institute. Methods for Dilution Antimicrobial Susceptibility Tests for Bacteria That Grow Aerobically; Approved Standard-Sixth Edition: CLSI document […]. CLSI, Wayne, Pa. (2003))
(§3) Antibacterial activity for E. coli, ATCC8739 andS. aureus Smith expressed as MIC (μM) is provided as follows: […]

The subject of the next assay is S. aureus Smith. Description: Antibacterial activity (MIC), S. aureus. The format is cell-based. The note with it: Staphylococcus aureus.
Excerpt: as §1, §2, §3

[2] abbreviates: ATCC8739, read-out: Antibacterial MIC (μM) E.Coli.
Where [3] appears, read: read-out: Antibacterial MIC (μM) S. aureus Smith.
Where [4] appears, read: ATCC8739, Table 2, E. coli ATCC8739, read-out: Antimicrobial MIC [μM] E. Coli.
[5] abbreviates: Table 2, S. aureus Smith, read-out: Antimicrobial MIC [μM] S. aureus.
Setting [6] is: ATCC8739, Table 1, E. coli ATCC8739, read-out: Antibacterial MIC (μM) E.Coli.
The mark [7] stands for this setting: Table 1, read-out: Antibacterial MIC (μM) S. aureus Smith.

T1 sequence (P49841 whole entry): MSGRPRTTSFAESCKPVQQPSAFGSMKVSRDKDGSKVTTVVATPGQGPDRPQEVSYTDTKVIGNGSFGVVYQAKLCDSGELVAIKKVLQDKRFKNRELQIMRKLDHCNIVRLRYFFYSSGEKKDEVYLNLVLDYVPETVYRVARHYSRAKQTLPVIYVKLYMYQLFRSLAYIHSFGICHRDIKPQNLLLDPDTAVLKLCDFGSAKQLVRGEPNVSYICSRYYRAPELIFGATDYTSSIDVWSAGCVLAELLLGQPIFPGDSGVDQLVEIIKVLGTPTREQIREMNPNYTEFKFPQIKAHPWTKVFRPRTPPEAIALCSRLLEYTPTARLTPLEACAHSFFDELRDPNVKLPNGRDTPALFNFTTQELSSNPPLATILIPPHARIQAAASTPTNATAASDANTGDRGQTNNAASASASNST

Take `CC(C)OCCCNc1c(F)c(N)c2c(=O)c(C(=O)O)cn(C3CCCC3)c2c1F` [compound 55]: the half-inhibitory concentration (IC50) in assay [1] (Table 1) is below 100 nM. The MIC was in the range of 10 to 50 µM (≈ 4.23 to 21.2 µg/mL) with E. coli, ATCC8739 (setting [2]) and 10 to 50 µM (≈ 4.23 to 21.2 µg/mL) with S. aureus Smith (setting [3]).
Take `CC1(C)Cn2cc(C(=O)O)c(=O)c3c(N)c(F)c(NCCCn4cnc5ccccc54)c(c32)O1` [compound 56]: in assay [1] (Table 2), the IC50 was 100 to 500 nM. Also, the MIC in the assay with E. coli, ATCC8739 (setting [4]) was in the range of 10 to 50 µM (≈ 4.65 to 23.3 µg/mL); in the assay with S. aureus Smith (setting [5]) it was 10 to 50 µM (≈ 4.65 to 23.3 µg/mL).
For `Nc1c(F)c(NCCNc2cccc3ccccc23)c(F)c2c1c(=O)c(C(=O)O)cn2C1CCCC1` [compound 56], the IC50 in assay [1] (Table 1) was below 100 nM. Further, the MIC in the assay on E. coli, ATCC8739 (setting [6]) was 10 to 50 µM (≈ 4.93 to 24.6 µg/mL); with S. aureus Smith (setting [7]), 10 to 50 µM (≈ 4.93 to 24.6 µg/mL).
For the molecule `Nc1c(F)c(NCCCCc2ccccc2)c(F)c2c1c(=O)ccn2C1CC1` [compound 57], the IC50 in assay [1] (Table 1) was in the range of 500 to 1000 nM. Besides, the MIC with E. coli, ATCC8739 (setting [6]) was 10 to 50 µM (≈ 3.83 to 19.2 µg/mL); with S. aureus Smith (setting [7]) it was 10 to 50 µM (≈ 3.83 to 19.2 µg/mL).
Regarding `CC1(C)Cn2cc(C(=O)O)c(=O)c3c(N)c(F)c(NCCCn4ccnc4)c(c32)O1` [compound 58], the IC50 in assay [1] (Table 2) lay in the range of 100 to 500 nM. The MIC in the assay on E. coli, ATCC8739 (setting [4]) was above 50 µM; in the assay on S. aureus Smith (setting [5]), above 50 µM.
In the case of `Nc1c(F)c(NCCCc2ccccc2)c(F)c2c1c(=O)ccn2CCc1ccccc1` [compound 58], the concentration for half-maximal inhibition (IC50) in assay [1] (Table 1) fell in the range of 100 to 500 nM. Besides, the MIC in the assay on E. coli, ATCC8739 (setting [6]) lay within 10 to 50 µM (≈ 4.34 to 21.7 µg/mL); in the assay on S. aureus Smith (setting [7]), 10 to 50 µM (≈ 4.34 to 21.7 µg/mL).
As to `CC1(C)Cn2cc(C(=O)O)c(=O)c3c(N)c(F)c(NCCCc4ccccc4)c(c32)O1` [compound 59], the IC50 in assay [1] (Table 2) was 100 to 500 nM. In addition, the MIC lay in the range of 10 to 50 µM (≈ 4.25 to 21.3 µg/mL) in the assay with E. coli, ATCC8739 (setting [4]) and 10 to 50 µM (≈ 4.25 to 21.3 µg/mL) in the assay with S. aureus Smith (setting [5]).
As for `Nc1c(F)c(NCCc2ccncc2)c(F)c2c1c(=O)ccn2CCc1ccccc1` [compound 59], the IC50 in assay [1] (Table 1) was in the range of 100 to 500 nM. The MIC with E. coli, ATCC8739 (setting [6]) was above 50 µM; in the assay with S. aureus Smith (setting [7]) it was above 50 µM.
As to `CC(C)OCCCNc1c(F)c(N)c2c(=O)ccn(CCc3ccccc3)c2c1F` [compound 60], the 50% inhibitory concentration (IC50) in assay [1] (Table 1) was 500 to 1000 nM. Further, the minimal inhibitory concentration (MIC) was in the range of 10 to 50 µM (≈ 4.15 to 20.8 µg/mL) in the assay on E. coli, ATCC8739 (setting [6]) and 10 to 50 µM (≈ 4.15 to 20.8 µg/mL) with S. aureus Smith (setting [7]).
As to `CC(C)[C@H]1COc2c(NCCNc3ccccn3)c(F)c(N)c3c(=O)c(C(=O)O)cn1c23` [compound 60], the IC50 in assay [1] (Table 2) was below 100 nM. The MIC with E. coli, ATCC8739 (setting [4]) was in the range of 10 to 50 µM (≈ 4.41 to 22.1 µg/mL); in the assay with S. aureus Smith (setting [5]) it was 10 to 50 µM (≈ 4.41 to 22.1 µg/mL).
Regarding `Nc1c(F)c(NCCCn2ccnc2)c(F)c2c1c(=O)c(C(=O)O)cn2CCCn1ccnc1` [compound 61], in assay [1] (Table 1), the IC50 was 100 to 500 nM. Also, the minimal inhibitory concentration (MIC) is above 50 µM in the assay with E. coli, ATCC8739 (setting [2]) and above 50 µM in the assay on S. aureus Smith (setting [3]).
For the molecule `CC(C)[C@@H]1COc2c(NCCNc3ccccn3)c(F)c(N)c3c(=O)c(C(=O)O)cn1c23` [compound 62], the IC50 in assay [1] (Table 2) is below 100 nM. The minimal inhibitory concentration (MIC) was in the range of 0.5 to 10 µM (≈ 0.221 to 4.41 µg/mL) in the assay on E. coli, ATCC8739 (setting [4]) and 0.5 to 10 µM (≈ 0.221 to 4.41 µg/mL) in the assay with S. aureus Smith (setting [5]).
`CC(C)[C@@H]1COc2c(NCCCn3ccnc3)c(F)c(N)c3c(=O)c(C(=O)O)cn1c23` [compound 63]: the concentration for half-maximal inhibition (IC50) in assay [1] (Table 2) is below 100 nM. Moreover, the MIC is above 50 µM in the assay with E. coli, ATCC8739 (setting [4]) and 10 to 50 µM (≈ 4.29 to 21.5 µg/mL) in the assay with S. aureus Smith (setting [5]).
For the molecule `Nc1c(F)c(NCCNc2ccccn2)c(F)c2c1c(=O)ccn2CCc1ccccc1` [compound 63], in assay [1] (Table 1), the concentration for half-maximal inhibition (IC50) fell in the range of 100 to 500 nM. Also, the MIC was in the range of 10 to 50 µM (≈ 4.35 to 21.8 µg/mL) in the assay with E. coli, ATCC8739 (setting [6]) and 10 to 50 µM (≈ 4.35 to 21.8 µg/mL) with S. aureus Smith (setting [7]).
As to `CC(C)[C@@H]1COc2c(NCCCc3ccccc3)c(F)c(N)c3c(=O)c(C(=O)O)cn1c23` [compound 64], the IC50 in assay [1] (Table 2) was below 100 nM. Besides, the minimal inhibitory concentration (MIC) in the assay with E. coli, ATCC8739 (setting [4]) fell in the range of 0.5 to 10 µM (≈ 0.22 to 4.39 µg/mL); in the assay on S. aureus Smith (setting [5]), 0.5 to 10 µM (≈ 0.22 to 4.39 µg/mL).
Regarding `Nc1c(F)c(NCCNc2cccc3ccccc23)c(F)c2c1c(=O)ccn2CCc1ccccc1` [compound 64], the IC50 in assay [1] (Table 1) lay in the range of 100 to 500 nM. Besides, the minimal inhibitory concentration (MIC) in the assay with E. coli, ATCC8739 (setting [6]) was 10 to 50 µM (≈ 4.85 to 24.2 µg/mL); with S. aureus Smith (setting [7]), 10 to 50 µM (≈ 4.85 to 24.2 µg/mL).
With `Nc1c(F)c(NCCCc2ccccc2)c(F)c2c1c(=O)c(C(=O)O)cn2CCCn1ccnc1` [compound 65], the IC50 in assay [1] (Table 1) was 100 to 500 nM. The minimum inhibitory concentration (MIC) lay within 10 to 50 µM (≈ 4.82 to 24.1 µg/mL) with E. coli, ATCC8739 (setting [6]) and 10 to 50 µM (≈ 4.82 to 24.1 µg/mL) in the assay on S. aureus Smith (setting [7]).

In general, IC50 refers to the concentration at which inhibition is half-maximal. By MIC is commonly meant the lowest concentration found to suppress growth.
